# Laboratory results: ChEMBL document CHEMBL5674860, “Optimized Dual-Glo Assay to identify co-culture-induced drug vulnerabilities in 3D CRC models” (2024)
# Square brackets hold non-standard residues; d marks the D form. Peptide text beside a SMILES is read from it. Arg(Me) = CNC(=N)NCCC[C@H](N)C(=O)O; d3Pal = N[C@H](Cc1cccnc1)C(=O)O; azaGly = NNC(=O)O
# Tests used:
# Assay type in all cases: functional, Homo sapiens
# Parameters in all cases: dose or concentration left out as unconfirmed
# Colon cancer organoid [1] = assay: Optimized Dual-Glo assay to identify co-culture induced drug vulnerabilities using donated chemical probes and chemogenomics kinase set in O14 CRC organoid and F14 CAF mono and co-culture. […] Cell viability is reported both mono and co-culture models.
# Colon cancer organoid [2] = assay: Optimized Dual-Glo assay to identify co-culture induced drug vulnerabilities using donated chemical probes and chemogenomics kinase set in O06 CRC organoid and F06 CAF mono and co-culture. […] Cell viability is reported both mono and co-culture models.
# Colon cancer organoid [3] = assay: Optimized Dual-Glo assay to identify co-culture induced drug vulnerabilities using donated chemical probes and chemogenomics kinase set in O20 CRC organoid and F20 CAF mono and co-culture. […] Cell viability is reported both mono and co-culture models.
# [4] = Culture type Co-Culture, Transduced with Lucferase2-P2A-EGFP lentivirus
# [5] = Culture type Co-Culture, Transduced with Renilla-dsRed lentivirus
# [6] = Culture type Mono-Culture, Transduced with Lucferase2-P2A-EGFP lentivirus
# [7] = Culture type Mono-Culture, Transduced with Renilla-dsRed lentivirus
SMILES,Cell Viability (Colon cancer organoid [1]; [4]),Cell Viability (Colon cancer organoid [1]; [5]),Cell Viability (Colon cancer organoid [1]; [6]),Cell Viability (Colon cancer organoid [1]; [7]),Cell Viability (Colon cancer organoid [2]; [4]),Cell Viability (Colon cancer organoid [2]; [5]),Cell Viability (Colon cancer organoid [2]; [6]),Cell Viability (Colon cancer organoid [2]; [7]),Cell Viability (Colon cancer organoid [3]; [4]),Cell Viability (Colon cancer organoid [3]; [5]),Cell Viability (Colon cancer organoid [3]; [6]),Cell Viability (Colon cancer organoid [3]; [7])
CCn1c(-c2nc3cc(C(=O)N4CCCC(N)C4)ccc3n2C)cc2ccccc21.Cl (centres undefined),85.5466%,126.887%,120.87%,100.943%,115.054%,117.733%,118.281%,112.415%,132.709%,136.72%,106.473%,96.2054%
CN1C(=O)c2sccc2N(C)c2nc(Nc3ccc(S(N)(=O)=O)cc3)ncc21,32.5942%,86.9407%,37.7546%,55.4366%,23.972%,57.2364%,18.6697%,40.4928%,36.1991%,84.1947%,15.0082%,80.0783%
C[C@H](c1ccc(F)cc1)N(Cc1ccc(Cl)c(C(=O)O)c1)C(=O)c1cnc2ccccc2c1 [PF-05257137],77.6621%,111.229%,120.37%,101.269%,116.801%,128.047%,124.519%,88.8687%,147.232%,103.742%,109.057%,106.822%
CO[C@H]1CNC[C@@H](OCC2CCC(F)(F)CC2)[C@@H]1Nc1ncc(-c2cncc(C)c2)c2cc(C)c(=O)[nH]c12,95.7966%,88.7201%,127.619%,100.555%,95.0954%,138.476%,98.6849%,128.396%,171.391%,122.949%,125.457%,102.001%
COc1cc2c(NC3CCN(C(C)C)CC3)nc(N3CCC(F)(F)CC3)nc2cc1OCCCN1CCCC1,56.1565%,72.4133%,84.8802%,67.5673%,88.0521%,104.162%,44.5913%,47.5732%,136.034%,132.743%,70.3827%,53.0002%
CO[C@H]1CC[C@H](CNc2ccc(S(=O)(=O)NC(=O)c3ccc(N4CCN(CC5=C(c6ccc(Cl)cc6)CC(C)(C)CC5)CC4)cc3Oc3cnc4[nH]ccc4c3)cc2[N+](=O)[O-])CC1 [A-1211212],35.4826%,44.6988%,55.1244%,87.836%,8.693%,108.861%,18.6642%,86.311%,16.3832%,159.244%,32.5112%,71.0169%
C[C@@H]1CN(c2cc(-c3nn(C)c4ccc(OC5(C)CC5)cc34)ncn2)C[C@H](C)O1 [MLi-2-NC],118.993%,72.3586%,109.582%,102.606%,21.8005%,254.626%,83.2909%,98.8275%,112.711%,86.6644%,122.371%,89.7102%
CN(C)C(=O)/C(C#N)=C/c1ccc(-c2nc3cnc4c(ccn4C)c3n2C2CCCCC2)o1,95.1732%,102.012%,142.854%,112.554%,100.774%,167.563%,117.157%,133.695%,49.7098%,127.191%,136.658%,125.979%
CNC(=N)NCCC[C@H](NC(=O)[C@H](CC(C)C)NC(=O)NNC(=O)[C@H](Cc1ccccc1)NC(=O)[C@H](CO)NC(=O)[C@H](CC(N)=O)NC(=O)[C@@H](Cc1cccnc1)NC(=O)[C@H](N)Cc1ccc(O)cc1)C(=O)NCC(N)=O [KISS1-543] (H-[dY][d3Pal]NSF[azaGly]L[Arg(Me)]G-NH2),118.116%,72.7172%,93.1075%,78.975%,103.647%,101.302%,85.2773%,99.9886%,101.104%,120.489%,73.3632%,97.5472%
C[C@H](c1ccc(F)cc1)N(Cc1cccc(C(=O)O)c1)C(=O)c1cnc2ccccc2c1 [PF-05105679],81.4426%,118.111%,74.3119%,99.7573%,133.625%,152.049%,106.722%,91.4083%,143.937%,111.508%,109.64%,98.1235%
Cc1sc2c(c1C)C(c1ccc(Cl)cc1)=N[C@@H](CC(=O)OC(C)(C)C)c1nnc(C)n1-2,21.0352%,390.207%,21.1376%,218.603%,24.0633%,301.325%,25.9077%,273.458%,11.0659%,145.881%,17.1066%,37.2064%
Cc1ccccc1Oc1cc(-n2c(=O)cc(C(F)(F)F)[nH]c2=O)c2ccccc2c1Cl [BAY-069],114.551%,130.948%,135.188%,102.99%,128.819%,153.89%,114.766%,111.149%,83.88%,119.466%,87.9837%,109.318%
CCN(C(=O)CO)[C@H]1CN(/C(=N\C#N)Nc2cccc(OC(F)F)c2)N=C1c1ccc(Cl)c(Cl)c1,96.421%,116.48%,90.9581%,97.9735%,100.328%,102.729%,73.2581%,127.729%,98.0443%,141.776%,125.834%,95.5224%
COc1ncc(-c2ccc3nccc(-c4ccnnc4)c3c2)cc1NS(=O)(=O)c1ccc(F)cc1F [OMIPALISIB],1.562%,61.2077%,2.831%,44.5325%,2.362%,34.7423%,3.227%,27.5983%,2.277%,94.8256%,1.422%,74.6652%
O=C(O)c1ccc(-c2c[nH]c3ncc(-c4ccccc4)cc23)cc1C1CCCC1 [GSK-650394],84.2987%,94.4983%,153.467%,103.115%,150.298%,125.274%,142.061%,114.363%,93.9419%,129.576%,65.3151%,121.845%
CN(C(=O)c1cnn2cccnc12)c1cc2c(cc1N1CCOCC1)C(=O)N(C[C@@H](F)C(C)(C)O)C2,89.5893%,113.489%,112.103%,103.195%,93.6773%,65.3185%,72.0703%,97.8487%,85.0124%,89.8275%,94.3235%,98.269%
Cc1nc(N2CC[C@H](O)C2)ncc1-c1cc(C(F)(F)F)cc2[nH]ncc12,63.6905%,138.157%,56.4353%,87.4633%,111.861%,161.788%,77.8362%,94.0965%,47.2711%,153.575%,55.4223%,100.169%
